This is an account of results in patent US6710048B2, “Pyrazine derivatives as modulators of tyrosine kinases” (Ortho-McNeil Pharmaceutical, Inc., priority 2000, dated 2004).

SMILES strings stand for the structures. Where only a bound is given, the exact number is not on record here.

Chain of FGF-R2 (P21802 22-821, species assumed): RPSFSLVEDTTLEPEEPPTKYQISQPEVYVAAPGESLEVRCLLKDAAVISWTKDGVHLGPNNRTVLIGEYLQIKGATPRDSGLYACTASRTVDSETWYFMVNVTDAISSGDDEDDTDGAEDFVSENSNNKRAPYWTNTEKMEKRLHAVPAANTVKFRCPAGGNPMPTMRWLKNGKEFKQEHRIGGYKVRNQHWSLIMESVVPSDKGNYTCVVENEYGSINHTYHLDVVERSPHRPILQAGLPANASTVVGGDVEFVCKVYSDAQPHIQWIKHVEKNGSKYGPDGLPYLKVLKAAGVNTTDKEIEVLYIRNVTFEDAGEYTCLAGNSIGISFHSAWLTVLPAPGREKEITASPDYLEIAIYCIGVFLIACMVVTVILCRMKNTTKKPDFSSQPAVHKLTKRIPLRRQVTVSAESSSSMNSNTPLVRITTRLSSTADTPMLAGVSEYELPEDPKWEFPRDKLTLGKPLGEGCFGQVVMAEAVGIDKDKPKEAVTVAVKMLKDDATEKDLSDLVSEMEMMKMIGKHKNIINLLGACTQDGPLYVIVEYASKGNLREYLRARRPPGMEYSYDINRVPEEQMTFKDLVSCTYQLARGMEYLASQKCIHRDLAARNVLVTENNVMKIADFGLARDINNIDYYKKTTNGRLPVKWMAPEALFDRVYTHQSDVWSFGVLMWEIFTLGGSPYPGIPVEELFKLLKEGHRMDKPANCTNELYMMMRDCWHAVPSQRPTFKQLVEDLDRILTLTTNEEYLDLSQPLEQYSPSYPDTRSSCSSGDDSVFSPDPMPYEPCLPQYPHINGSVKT

The first assay has as its target FGF-R2 (Homo sapiens, UniProt P21802). Put plainly: FGF-R2 kinase selectivity assay. The assay is classed as biochemical. The conditions noted are these: Table 4 kinase selectivity; read-out: IC50, Assay 15 FGF-R2. As for the experimental part:
(§1) Assays to test compound inhibition of other kinases were preformed using methods that measure the amount of phosphorylation of a biotinylated peptide substrate. Biotinylated peptide substrates were selected from the literature as appropriate for the enzyme being evaluated. The general procedure used to assay for kinase activity is as follows: A kinase reaction mix was prepared in 50 mM Tris-HCl pH=8, 10 mM MgCl2, 0.1 mM NaVO4, 1 mM DTT, 5-10 μM ATP, 0.25-1 μM biotinylated peptide substrate, 0.2-0.8 μCuries per well ^33P-γ-ATP [2000-3000 Ci/mmol]. Assay conditions vary slightly for each protein kinase, for example, insulin receptor kinase requires 10 mM MnCl2 for activity and Calmodulin-dependent protein kinase requires calmodulin and 2 mM CaCl2. The reaction mixture was dispensed into the wells of a streptavidin coated Flashplate and 1 μl drug stock in 100% DMSO was added to a 100 μl reaction volume resulting in a final concentration of 1% DMSO in the reaction. Enzyme was diluted in 50 mM Tris-HCl pH=8.0, 0.1% BSA and added to each well. The reaction was incubated for one hour at 30° C. in the presence of compound. After one hour the reaction mix was aspirated from the plate and the plate was washed with PBS containing 100 mM EDTA. The plate was read on a scintillation counter to determine ^33P-γ-ATP incorporated into the immobilized peptide. Test compounds were assayed in duplicate at 8 concentrations [100 tM, 10 μM, 1 μM, 100 nM, 10 nM, 1 nM, 100 μM, 10 μM]. A maximum and minimum signal for the assay was determined on each plate. The IC50 was calculated from the dose response curve of the percent inhibition of the maximum signal in the assay according to the formula [max signal−background/test compound signal−background (100)=% inhibition] by graphing the percent inhibition against the log concentration of test compound. Known inhibitor compounds appropriate for the kinase being assayed were also included on each plate.
As usually defined, the IC50 is the concentration that inhibits the measured activity by half. On to `O=C(NCCCO)c1cncc(-c2cncc(Nc3cccc(Cl)c3)n2)c1` [Cmd 39], for which the IC50 turned out to be 1.8 µM.
Same read-out and setting: as for `Clc1cccc(Nc2cncc(-c3cncc(NCCCc4cccnc4)c3)n2)c1` [Cmd 72], the figure is 0.293 µM; as for `Clc1cccc(Nc2cncc(-c3cncc(NCCCn4cncn4)c3)n2)c1` [Cmd 76], 0.153 µM; as for `OCCCCNc1cncc(-c2cncc(Nc3cccc(Cl)c3)n2)c1` [Cmd 32], 2.36 µM.
In the case of `OCCCNc1cncc(-c2cncc(Nc3cccc(Cl)c3)n2)c1` [Cmd 4], the IC50 was found to be 0.207 µM.
For the molecule `Clc1cccc(Nc2cncc(-c3cncc(NCCCc4ccncc4)c3)n2)c1` [Cmd 71], the IC50 amounted to 0.317 µM.
With `Clc1cccc(Nc2cncc(-c3cncc(NCCCn4cccn4)c3)n2)c1` [Cmd 75], the IC50 amounted to 0.326 µM.
On to `Clc1cccc(Nc2cncc(-c3cncc(NCCCN4CCCCC4)c3)n2)c1` [Cmd 73], for which the IC50 was 0.276 µM.
On the same count and under the same terms, the value for `CN(C)CCCNc1cncc(-c2cncc(Nc3cccc(Cl)c3)n2)c1` [Cmd 35] was 3.07 µM.
Still for that read-out and setting: as for `CN(C)CCNc1cncc(-c2cncc(Nc3cccc(Cl)c3)n2)c1` [Cmd 33, N′-[5-[6-[(3-chlorophenyl)amino]pyrazinyl]-3-pyridinyl]-N^2,N^2-dimethyl-1,2-ethanediamine], the figure is 1.4 µM.

The target in another assay is T1, Casein Kinase 2 (Homo sapiens, UniProt P68400).
T1 construct: purchased New England Biolabs 6010; host or cells: E. coli
T1 sequence (P68400 whole entry): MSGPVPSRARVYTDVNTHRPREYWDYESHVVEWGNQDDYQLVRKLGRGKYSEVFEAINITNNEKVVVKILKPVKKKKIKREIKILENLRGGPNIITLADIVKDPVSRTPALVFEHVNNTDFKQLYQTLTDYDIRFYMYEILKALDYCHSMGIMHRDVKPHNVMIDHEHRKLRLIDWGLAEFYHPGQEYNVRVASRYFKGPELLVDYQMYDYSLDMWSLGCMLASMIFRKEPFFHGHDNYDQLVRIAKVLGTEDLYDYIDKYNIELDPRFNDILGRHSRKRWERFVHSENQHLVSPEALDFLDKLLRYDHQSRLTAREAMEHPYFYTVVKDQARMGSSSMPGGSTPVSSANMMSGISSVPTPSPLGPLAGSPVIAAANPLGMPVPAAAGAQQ
T1 sequence (P67870 whole entry partner): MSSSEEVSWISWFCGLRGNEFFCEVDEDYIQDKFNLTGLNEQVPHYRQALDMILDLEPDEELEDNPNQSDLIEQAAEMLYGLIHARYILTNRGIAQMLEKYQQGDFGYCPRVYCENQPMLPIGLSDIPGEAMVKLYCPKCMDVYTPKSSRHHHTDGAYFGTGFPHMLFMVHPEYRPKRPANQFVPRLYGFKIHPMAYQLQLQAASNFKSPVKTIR
As to the kind of experiment: Casein Kinase 2 selectivity assay. The assay is classed as biochemical. The conditions noted are these: Table 4 kinase selectivity; 10 = approximate value; read-out: IC50, Assay 9 Casein Kinase 2. As for the experimental part:
as §1, with “The general procedure used to assay for kinase activity is as follows: A kinase reaction mix was prepared in 50 mM Tris-HCl pH=8, 10 mM MgCl2, 0.1 mM NaVO4, 1 mM DTT, 5-10 μM ATP, 0.25-1 μM biotinylated peptide substrate, 0.2-0.8 μCuries per well ^33P-γ-ATP [2000-3000 Ci/mmol].” left out
VEGF-R (vascular endothelial growth factor receptor-2) is a fusion protein containing a polyhistidine tag at the N-terminus followed by amino acids 786-1343 of the rat VEGF-R2 kinase domain (GenBank Accession #U93306). CDK1 (cyclin dependent kinase 1) is isolated from insect cells expressing both the human CDK1 catalytic subunit and its positive regulatory subunit cyclin B (New England Biolabs, Beverly, Mass., Cat. #6020). CDK4 (cyclin dependent kinase 4) contains amino acids 769 to 921 of the mouse […] protein found in the GST-retinoblastoma protein construct (Santa Cruz Biotechnology, Santa Cruz, Calif.; Cat. #SC-4112). Insulin Receptor Kinase consists of residues 941-1313 of the cytoplasmic domain of the beta-subunit of the human insulin receptor (BIOMOL, Plymouth Meeting, Pa., Cat. #SE-195). Protein Kinase A is the catalytic subunit of cAMP dependent protein kinase-A purified from bovine heart (Upstate Biotech, Lake Placid, N.Y., Cat#14-114). PKC (protein kinase-C) is the gamma or beta isoform of the human protein produced in insect cells (BIOMOL, Plymouth Meeting, Pa., Cat. #SE-143). Casein Kinase 1 is a truncation at amino acid 318 of the C-terminal portion of the rat CK1 delta isoform produced in E.coli (New England Biolabs, Beverly, Mass., Cat. #6030). Casein Kinase 2 includes the alpha and beta subunits of the human CK2 protein produced in E.coli (New England Biolabs, Beverly, Mass., Cat. #6010). Calmodulin Kinase (calmodulin-dependent protein kinase 2) is a truncated version of the alpha subunit of the rat protein produced in insect cells (New England Biolabs, Beverly, Mass., Cat. #6060). Glycogen Synthase Kinase-3 is the beta isoform of the rabbit enzyme produced in E. coli (New England Biolabs, Beverly, Mass., Cat. #6040). MAP Kinase is the rat ERK-2 isoform containing a polyhistidine tag at the N-terminus produced in E. coli. and activated by phosphorylation with MEK1 prior to purification (BIOMOL, Plymouth Meeting, Pa., Cat. #SE-137). EGFR (epidermal growth factor receptor) is purified from human A431 cell membranes (Sigma, St. Louis, Mo., Cat.# E3641). PDGF-R (platelet derived growth factor receptor) is a fusion protein containing a polyhistidine tag at the N-terminus followed by nucleotides 1874-3507 of the human PDGF-R beta subunit kinase domain (Accession #M21616). […]
For the molecule `O=C(NCCCO)c1cncc(-c2cncc(Nc3cccc(Cl)c3)n2)c1` [Cmd 39], the IC50 was about 10 µM.
Consider `Clc1cccc(Nc2cncc(-c3cncc(NCCCc4cccnc4)c3)n2)c1` [Cmd 72], for which the IC50 is over 100 µM.
The same measure, in the same setting: the value for `Clc1cccc(Nc2cncc(-c3cncc(NCCCn4cncn4)c3)n2)c1` [Cmd 76] was 7.2 µM; that for `OCCCCNc1cncc(-c2cncc(Nc3cccc(Cl)c3)n2)c1` [Cmd 32] was over 100 µM; that for `OCCCNc1cncc(-c2cncc(Nc3cccc(Cl)c3)n2)c1` [Cmd 4] was over 100 µM.
The same measure, in the same setting: as for `Clc1cccc(Nc2cncc(-c3cncc(NCCCc4ccncc4)c3)n2)c1` [Cmd 71], the figure is over 100 µM; as for `Clc1cccc(Nc2cncc(-c3cncc(NCCCn4cccn4)c3)n2)c1` [Cmd 75], 8.1 µM; as for `Clc1cccc(Nc2cncc(-c3cncc(NCCCN4CCCCC4)c3)n2)c1` [Cmd 73], 6.35 µM.
Regarding `CN(C)CCCNc1cncc(-c2cncc(Nc3cccc(Cl)c3)n2)c1` [Cmd 35], the IC50 was over 100 µM.
Still for that read-out and setting: the value for `CN(C)CCNc1cncc(-c2cncc(Nc3cccc(Cl)c3)n2)c1` [Cmd 33, N′-[5-[6-[(3-chlorophenyl)amino]pyrazinyl]-3-pyridinyl]-N^2,N^2-dimethyl-1,2-ethanediamine] was over 100 µM.
